The values that follow come from patent publication US4623662A, “Antiatherosclerotic ureas and thioureas” (American Cyanamid Company, priority 1985, dated 1986).

Each structure is given as a SMILES string. Like-named read-outs stand apart in the source and are kept apart here.

Assay [1] concerns the target T1, fatty acyl CoA: cholesterol acyl transferase (ACAT) (Rattus norvegicus, UniProt O70536).
T1 construct: The supernatant, containing the microsomal fraction, served as the source of the cholesterol-esterifying enzyme; from tissue; host or cells: rat adrenals, supernatant of 1,000 x g centrifugation containing the microsomal fraction
T1 sequence (O70536 1-545): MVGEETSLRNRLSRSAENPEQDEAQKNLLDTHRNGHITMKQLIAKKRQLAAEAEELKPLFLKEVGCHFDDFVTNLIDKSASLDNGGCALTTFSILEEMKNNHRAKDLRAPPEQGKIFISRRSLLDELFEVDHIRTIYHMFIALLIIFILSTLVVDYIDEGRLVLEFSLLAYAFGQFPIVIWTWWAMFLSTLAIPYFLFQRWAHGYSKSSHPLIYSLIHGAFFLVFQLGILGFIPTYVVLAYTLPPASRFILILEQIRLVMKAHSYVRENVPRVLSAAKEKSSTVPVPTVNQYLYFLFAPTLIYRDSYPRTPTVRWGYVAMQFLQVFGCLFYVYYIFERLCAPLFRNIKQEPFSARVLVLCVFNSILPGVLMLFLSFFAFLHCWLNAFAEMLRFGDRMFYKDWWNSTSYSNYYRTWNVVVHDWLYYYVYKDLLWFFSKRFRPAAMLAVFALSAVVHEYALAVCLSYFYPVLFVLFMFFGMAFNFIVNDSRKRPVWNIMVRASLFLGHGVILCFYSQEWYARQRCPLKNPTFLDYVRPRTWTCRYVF
The assay is described as follows: Inhibition of fatty acyl CoA:cholesterol acyl transferase (ACAT), rat adrenal enzyme. The assay is classed as biochemical. Conditions: for IC50: several concentrations. A digest of the protocol: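 Read-out was scintillation counting of [14C]cholesteryl ester, isolated by TLC, after 10 min at 37° C with [14C]oleoyl CoA. Beforehand, compound (final 5.2 μg/ml in single-concentration tests) was preincubated 10 min at 37° C with BSA and rat adrenal microsomal supernatant in pH 7.4 phosphate. Results given as percent inhibition versus control or IC50 over several concentrations.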

A further assay deals with cholesterol absorption. The assay is described as follows: Inhibition of cholesterol absorption in rats fed 1% cholesterol:0.5% cholic acid diet. Conditions: po, 336 h, rat, 2 weeks; for response vs control in vivo at 0.03 %: dose .03% of the diet; for response vs control in vivo at 0.01 %: dose .01% of the diet. Type of assay: in vivo, male Sprague-Dawley rats. The method, boiled down: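 Compound was mixed into the diet (0.001-0.03%) of male Sprague-Dawley rats, 150-170 g, on a 1% cholesterol/0.5% cholic acid regimen for 2 weeks. At sacrifice, serum cholesterol (enzymatic) and liver neutral-sterol cholesterol were measured; values given as percent of compound-free control rats.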

The mark [2] stands for this setting: read-out: LS (liver sterol), percentage of control values.
The mark [3] stands for this setting: read-out: SS (serum sterol), percentage of control values.
[4] abbreviates: rat adrenal ACAT, final concentration 5.2 μg/ml, read-out: % Inhibition.

Turning to `Cc1cc(Cl)ccc1NC(=O)N(CCC(C)(C)C)Cc1ccc(CC(C)(C)C)cc1` [1-(3,3-Dimethylbutyl)-1-[4-(2,2-dimethylpropyl)benzyl]-3-(4-chloro-2-methylphenyl)urea], testing at 5.2 µg/mL in assay [1] gave an inhibition of 90%. The response vs control in vivo at 0.03 % with cholesterol absorption (setting [2]) was 20%; in the assay on cholesterol absorption (setting [3]), 51%.
As to `CCCCc1ccc(CN(CCCCCCCl)C(=O)Nc2ccc(Cl)cc2C)cc1` [1-[(4-Butylphenyl)methyl]-1-(6-chlorohexyl)-3-(4-chloro-2-methylphenyl)urea], the inhibition at 5.2 µg/mL in assay [1] amounted to 90%. The figures for the response vs control in vivo at 0.03 % in the assay with cholesterol absorption (setting [2]) and with cholesterol absorption (setting [3]) were 35% and 46%, respectively.
With `CCCCN(Cc1ccccc1)C(=O)Nc1ccc(C)cc1C` [1-Benzyl-1-(n-butyl)-3-(2,4-dimethylphenyl)urea], the inhibition at 5.2 µg/mL in assay [1] (setting [4]) is 91.3%. Further, the response vs control in vivo at 0.03 % in the assay with cholesterol absorption (setting [2]) turned out to be 65%; in the assay with cholesterol absorption (setting [3]), 70%.
Turning to `CCCCCCCN(Cc1ccc(OCCCC)cc1)C(=O)Nc1ccc(F)cc1F` [1-(n-Heptyl)-1-(4-n-butoxybenzyl)-3-(2,4-difluorophenyl)urea], the inhibition at 5.2 µg/mL in assay [1] (setting [4]) was found to be 82.7%. Also, the response vs control in vivo at 0.03 % amounted to 25% in the assay with cholesterol absorption (setting [2]) and 63% in the assay with cholesterol absorption (setting [3]).
For the compound `CCCCCCCN(Cc1ccc(OCCCC)cc1)C(=O)Nc1cc(C)c(C)cc1C` [1-(n-Heptyl)-1-(4-butyloxybenzyl)-3-(2,4,5-trimethylphenyl)urea], in assay [1] (setting [4]), the inhibition at 5.2 µg/mL was found to be 95.6%. The response vs control in vivo at 0.03 % with cholesterol absorption (setting [2]) turned out to be 17%; with cholesterol absorption (setting [3]), 32%.
Turning to `CCCCCCCN(Cc1ccc(CCCC)cc1)C(=O)Nc1ccccc1C` [1-(n-Heptyl)-1-(4-n-butylbenzyl)-3-(2-methylphenyl)urea], the inhibition at 5.2 µg/mL in assay [1] (setting [4]) amounted to 97.4%. Also, the values for the response vs control in vivo at 0.03 % with cholesterol absorption (setting [2]) and with cholesterol absorption (setting [3]) were 29% and 35%, respectively.
`CCCCCCCN(Cc1ccc(CCCCCl)cc1)C(=O)Nc1c(C)cc(Cl)cc1C` [1-(n-Heptyl)-1-[4-(4-chlorobutyl)benzyl]-3-(4-chloro-2,6-dimethylphenyl)urea] yielded an IC50 in assay [1] (rat adrenal ACAT) of 0.11 µM. Besides, the response vs control in vivo at 0.03 % in the assay with cholesterol absorption (setting [2]) was determined as 18%; with cholesterol absorption (setting [3]), 19%.
Consider `O=C(Nc1cccc(C(F)(F)F)c1)N(Cc1ccc(Cl)cc1)Cc1cccc2ccccc12` [1-(4-Chlorobenzyl)-1-(1-naphthylmethyl)-3-(3-trifluoromethylphenyl)urea], for which the inhibition at 5.2 µg/mL in assay [1] (setting [4]) came to 80%. The results for the response vs control in vivo at 0.03 % in the assay with cholesterol absorption (setting [2]) and in the assay on cholesterol absorption (setting [3]) were 92% and 87%, respectively.
Turning to `CCCCCCCN(Cc1ccc(CCCC)cc1)C(=O)Nc1ccc(C(=O)OCC)cc1` [1-(n-Heptyl)-1-(4-n-butylbenzyl)-3-(4-carboethoxyphenyl)urea], the inhibition at 5.2 µg/mL in assay [1] (setting [4]) was 92.4%. In addition, the values for the response vs control in vivo at 0.03 % in the assay with cholesterol absorption (setting [2]) and in the assay with cholesterol absorption (setting [3]) were 84% and 88%, respectively.
In assay [1], `CCCCCCCN(CCc1ccccc1)C(=O)Nc1ccc(Cl)cc1C(F)(F)F` [1-(n-Heptyl)-1-(2-phenylethyl)-3-(2-trifluoromethyl-4-chlorophenyl)urea] yielded an inhibition at 5.2 µg/mL of 88.3%. The response vs control in vivo at 0.03 % in the assay on cholesterol absorption (setting [2]) was 80%; in the assay on cholesterol absorption (setting [3]), 79%.
As for `CCCCOc1ccc(CN(Cc2ccccc2)C(=O)Nc2ccc(F)cc2F)cc1` [1-Benzyl-1-(4-n-butoxybenzyl)-3-(2,4-difluorophenyl)urea], in assay [1] (setting [4]), the inhibition at 5.2 µg/mL was 88%. Further, the response vs control in vivo at 0.03 % came out at 22% in the assay with cholesterol absorption (setting [2]) and 53% with cholesterol absorption (setting [3]).
As for `O=C(Nc1ccc(F)cc1F)N(Cc1ccc(Cl)cc1)Cc1cccc2ccccc12` [1-(4-Chlorobenzyl)-1-(1-naphthylmethyl)-3-(2,4-difluorophenyl)urea], in assay [1] (setting [4]), the inhibition at 5.2 µg/mL amounted to 84%. The response vs control in vivo at 0.03 % in the assay on cholesterol absorption (setting [2]) came out at 30%; in the assay with cholesterol absorption (setting [3]) it was 45%.
Turning to `O=C(Nc1c(Cl)cc(Cl)cc1Cl)N(Cc1ccc(Cl)cc1)Cc1cccc2ccccc12` [1-(4-Chlorobenzyl)-1-(1-naphthylmethyl)-3-(2,4,6-trichlorophenyl)urea], the inhibition at 5.2 µg/mL in assay [1] (setting [4]) was found to be 77%. Moreover, the results for the response vs control in vivo at 0.03 % in the assay on cholesterol absorption (setting [2]) and in the assay on cholesterol absorption (setting [3]) were 12% and 38%, respectively.
With `CCCCCCCN(Cc1ccc(OCCCC)cc1)C(=O)Nc1cccc(C(F)(F)F)c1` [1-(n-Heptyl)-1-(4-n-butoxybenzyl)-3-(3-trifluoromethylphenyl)urea], the inhibition at 5.2 µg/mL in assay [1] (setting [4]) is 82.4%. Moreover, the response vs control in vivo at 0.03 % with cholesterol absorption (setting [2]) worked out at 86%; in the assay with cholesterol absorption (setting [3]), 80%.
As for `CCCCCCCN(Cc1ccc(C(C)C)cc1)C(=O)Nc1c(C)cc(Cl)cc1C` [1-(n-Heptyl)-1-[4-(isopropyl)benzyl]-3-(4-chloro-2,6-dimethylphenyl)urea], in assay [1] (rat adrenal ACAT), 0.2 µM corresponded to half-maximal inhibition (IC50). The response vs control in vivo at 0.01 % with cholesterol absorption (setting [2]) is 20%; in the assay on cholesterol absorption (setting [3]) it was 35%.
For the compound `CCCCCOc1ccc(CN(Cc2ccc(CCCCC)cc2)C(=O)Nc2c(Cl)cc(Cl)cc2Cl)cc1` [1-(4-n-Pentylbenzyl)-1-(4-n-pentyloxybenzyl)-3-(2,4,6-trichlorophenyl)urea], the inhibition at 5.2 µg/mL in assay [1] (setting [4]) was found to be 95.5%. The response vs control in vivo at 0.03 % with cholesterol absorption (setting [2]) came out at 76%; in the assay with cholesterol absorption (setting [3]), 100%.
Consider `CCCCCCCN(CCc1ccccc1)C(=O)Nc1ccc(F)cc1F` [1-(n-Heptyl)-1-(2-phenylethyl)-3-(2,4-difluorophenyl)urea], for which, in assay [1] (setting [4]), the inhibition at 5.2 µg/mL was 94.1%. Moreover, the response vs control in vivo at 0.03 % in the assay on cholesterol absorption (setting [2]) was determined as 57%; with cholesterol absorption (setting [3]), 59%.
For the compound `CCCCN(Cc1ccccc1)C(=O)Nc1ccc(Cl)cc1C` [1-(n-Butyl)-1-benzyl-3-(4-chloro-2-methylphenyl)urea], the inhibition at 5.2 µg/mL in assay [1] (setting [4]) was 89%. In addition, the response vs control in vivo at 0.03 % in the assay on cholesterol absorption (setting [2]) was 62%; in the assay on cholesterol absorption (setting [3]), 72%.
For the compound `CCCCCCCN(CCc1ccccc1)C(=O)Nc1ccc(C)cc1C` [1-(n-Heptyl)-1-(2-phenylethyl)-3-(2,4-dimethylphenyl)urea], in assay [1] (setting [4]), the inhibition at 5.2 µg/mL amounted to 95.7%. Moreover, the response vs control in vivo at 0.03 % turned out to be 36% with cholesterol absorption (setting [2]) and 57% with cholesterol absorption (setting [3]).
For `CCCCCCCN(Cc1ccc(CCCC)cc1)C(=O)Nc1c(C)cc(Cl)cc1C` [1-(n-Heptyl)-1-[4-(n-butyl)benzyl]-3-(4-chloro-2,6-dimethylphenyl)urea], the inhibition at 5.2 µg/mL in assay [1] turned out to be 90%. The response vs control in vivo at 0.03 % was 11% in the assay with cholesterol absorption (setting [2]) and 31% in the assay on cholesterol absorption (setting [3]).
In the case of `CCCCOc1ccc(CN(Cc2ccccc2)C(=O)Nc2ccc(C)cc2C)cc1` [1-Benzyl-1-(4-butyloxybenzyl)-3-(2,4-dimethylphenyl)urea], the inhibition at 5.2 µg/mL in assay [1] (setting [4]) amounted to 91.7%. Moreover, the response vs control in vivo at 0.03 % with cholesterol absorption (setting [2]) is 15%; with cholesterol absorption (setting [3]) it was 48%.
Regarding `CC(C)CCN(Cc1ccc(C(C)C)cc1)C(=O)Nc1c(F)cc(F)cc1F` [1-(Isopentyl)-1-[4-(isopropyl)benzyl]-3-(2,4,6-trifluorophenyl)urea], the half-maximal inhibitory concentration (IC50) in assay [1] (rat adrenal ACAT) worked out at 0.53 µM. The figures for the response vs control in vivo at 0.03 % in the assay on cholesterol absorption (setting [2]) and in the assay with cholesterol absorption (setting [3]) were 35% and 31%, respectively.
Take `CCCCCCCN(Cc1ccc(CCC(C)C)cc1)C(=O)Nc1ccc(Cl)cc1C` [1-(n-Heptyl)-1-[4-(4-isopentyl)benzyl]-3-(4-chloro-2-methylphenyl)urea]: the half-inhibitory concentration (IC50) in assay [1] (rat adrenal ACAT) turned out to be 2.4 µM. In addition, the response vs control in vivo at 0.01 % in the assay on cholesterol absorption (setting [2]) turned out to be 17%; in the assay with cholesterol absorption (setting [3]), 20%.
In turn, `Cc1cc(C)c(NC(=O)N(Cc2ccccc2)C(Cc2ccccc2)c2ccc(OCc3ccccc3)cc2)c(C)c1` (stereo not drawn) [1-Benzyl-1-[2-phenyl-1-(4-benzyloxyphenyl)ethyl]-3-(2,4,6-trimethylphenyl)urea] yielded an inhibition at 5.2 µg/mL in assay [1] of 90%. Moreover, the response vs control in vivo at 0.03 % in the assay with cholesterol absorption (setting [2]) was determined as 49%; with cholesterol absorption (setting [3]) it was 60%.
In assay [1], `CC(C)(C)CCN(Cc1cccs1)C(=O)Nc1c(Cl)cc(Cl)cc1Cl` [1-(3,3-Dimethylbutyl)-1-(2-thienylmethyl)-3-(2,4,6-trichlorophenyl)urea] displayed an inhibition at 5.2 µg/mL of 90%. The values for the response vs control in vivo at 0.03 % in the assay on cholesterol absorption (setting [2]) and in the assay on cholesterol absorption (setting [3]) were 56% and 58%, respectively.
In turn, `CCCCOc1ccc(CN(Cc2cccs2)C(=O)Nc2cc(C)c(C)cc2C)cc1` [1-[(4-Butoxyphenyl)methyl]-1-(2-thienylmethyl)-3-(2,4,5-trimethylphenyl)urea] displayed an inhibition at 5.2 µg/mL in assay [1] of 90%. Besides, the results for the response vs control in vivo at 0.03 % in the assay with cholesterol absorption (setting [2]) and with cholesterol absorption (setting [3]) were 16% and 41%, respectively.
